Marks after values point to notes of the source that are not given here. *1 amine or outer side, *2 acyl side, *3 side chain or, on linkers, in order; H or OH if unused. Where a SMILES comes first, the peptide text is derived from it. Side-chain parts run from the residue outwards. [ ]: non-standard residue; d: D form. The star is where a group is joined. C18 diacid = O=C(O)CCCCCCCCCCCCCCCCC(=O)*; C16 diacid = O=C(O)CCCCCCCCCCCCCCC(=O)*; γGlu = O=C(O)[C@H](CCC(=O)[*:2])N[*:1]; εLys = N[C@@H](CCCCN[*:1])C(=O)[*:2]; AEEA = NCCOCCOCC(=O)O; Aib = CC(C)(N)C(=O)O; Sar = CNCC(=O)O

Series [1] can be described thus: in vivo. Also on record: species or system beagle dogs. As to conditions: dog, po, 300 mg; for Tmax / half-life: male, beagle. The method, then:
The purpose of this method is to determine the terminal half-life and plasma exposure in vivo of the compounds of the present invention after p.o. administration to beagle dogs, i.e. the terminal half-life and concentration of test substance that reaches circulation with time. This is done in a pharmacokinetic (PK) study, where these parameters of the compound in question are determined. By terminal half-life is generally meant the period of time it takes to halve a certain plasma concentration, measured after the initial distribution phase.
Tablet compositions comprising the test compounds obtained from Example 1 and SNAC (sodium N-(8-(2-hydroxybenzoyl)amino)caprylate) were prepared according to methods known to the person skilled in the art by mixing test substance with roller compacted SNAC and magnesium stearate as e.g. described in WO 2019/149880. Each tablet was comprised of 7.7 mg magnesium stearate, 2-4 mg of each compound tested, and 300 mg SNAC.
Male beagle dogs, 1-7 years of age and weighing 9-17 kg during the study period, were included in the study. The dogs were dosed in a fasting state. The dogs were group housed in pens (12 hours light: 12 hours dark), and fed individually and restrictedly once daily with Royal Canin Medium Adult dog food (Royal Canin Products, China Branch, or Brogaarden A/S, Denmark). The dogs were used for repeated PK studies with a suitable wash-out period between successive dosing. An appropriate acclimatisation period was given prior to initiation of the first PK study. All handling, dosing, and blood sampling of the animals were performed by trained and skilled staff. Before the studies, the dogs were fasted overnight and from 0 to 4 hours after dosing. The dogs were restricted to water 1 hour before dosing until 4 hours after dosing, but otherwise had adlibitum access to water during the whole period.
The compositions were administered by a single oral dosing to the dogs in groups of 6-8 dogs. The tablets were administered in the following manner: 10 min prior to tablet administration, the dogs may be dosed subcutaneously with approximately 3 nmol/kg of SEQ ID NO.: 7 ([…]), then tablets were placed in the back of the mouth of the dog to prevent chewing. The mouth was then closed, and 10 mL of tap water was given by syringe or gavage to facilitate swallowing of the tablet.
One blood sample was drawn before dosing, and additional samples were drawn at predefined time points after dosing, such as for up to 600 hours, to adequately cover the full plasma concentration-time absorption profile of the test substance. For each blood sample time point, approximately 0.8 mL of whole blood was collected in a 1.5 mL EDTA-coated tube, which was gently turned to mix the sample with EDTA. Blood samples were collected in EDTA buffer (8 mM) and then centrifuged at 4° C. and 2000 g for 10 minutes. Plasma was pipetted into Micronic tubes on dry ice, and kept at −20° C. or lower until analysis. Blood samples were taken as appropriate, for example from a venflon in the cephalic vein in the front leg for the first 2 hours and then with syringe from the jugular vein for the rest of the time points. The first few drops were allowed to drain from the venflon to avoid heparin saline from the venflon in the sample. All blood samples were collected into test tubes containing EDTA for stabilisation and kept on ice until centrifugation. Plasma was separated from whole blood by centrifugation and the plasma was stored at −20° C. or lower until analysis.
The plasma was analysed for test substance using LC-MS (Liquid Chromatography-Mass Spectrometry) as known to the person skilled in the art. […]

Series [2] is described as follows: in vivo. Particulars: female, Göttingen, minipig, iv. The arrangement: species or system Göttingen minipigs. The method, then: The purpose of this method is to determine the half-life in vivo of the derivatives of the present invention after i.v. administration to minipigs, i.e. the prolongation of their time in the body and thereby their time of action. This is done in a pharmacokinetic (PK) study, where the terminal half-life of the derivative in question is determined. By terminal half-life is generally meant the period of time it takes to halve a certain plasma concentration, measured after the initial distribution phase.
Female Göttingen minipigs were obtained from Ellegaard Göttingen Minipigs (Dalmose, Denmark) approximately 7-14 months of age and weighing from approximately 16-35 kg were used in the studies. The minipigs were housed individually and fed restrictedly once daily with SDS minipig diet (Special Diets Services, Essex, UK).
After at 3 weeks of acclimatisation two permanent central venous catheters were implanted in vena cava caudalis in each animal. The animals were allowed 1 week recovery after the surgery, and were then used for repeated pharmacokinetic studies with a suitable wash-out period between successive derivative dosing.
The animals were fasted for approximately 18 hours before dosing and from 0 to 4 hours after dosing but had ad libitum access to water during the whole period.
The sodium salts of compounds of Examples 1 were prepared using method SX_A under General Methods for preparation of the compounds of the invention. The resulting sodium salts were dissolved to a concentration of 50-300 nmol/mL in a buffer containing 0.007% polysorbate 20, 50 mM sodium phosphate, 70 mM sodium chloride, pH 7.4. Intravenous injections (the volume corresponding to usually 1-20 nmol/kg, for example 0.02-0.05 mL/kg) of the compounds were given through one catheter, and blood was sampled at predefined time points for up to 21 days post dosing (preferably through the other catheter). Blood samples (for example 0.8 mL) were collected in 8 mM EDTA buffer and then centrifuged at 4° C. and 1942 g for 10 minutes.
Plasma was pipetted into Micronic tubes on dry ice and kept at −20° C. until analysed for plasma concentration of the compounds using ELISA, or a similar antibody-based assay, or LCMS. Individual plasma concentration-time profiles were analysed by a non-compartmental model in Phoenix WinNonLin ver. 6.4. (Pharsight Inc., Mountain View, CA, USA), and the resulting terminal half-lives (harmonic mean) determined.
The terminal half-lives and/or the observed terminal half-lives, measured as described herein in General Methods for Measuring Terminal Half-Life in Minipigs are shown in Table 7. […] This provides evidence that conversion of prodrug to parent compound is occurring in vivo. The terminal half-life of the prodrug may be faster or slower than the corresponding parent compound due to the contribution of conversion on the terminal half-life of the prodrug.

The next series in a line: physchem. Format: physicochemical. Particulars: buffer, pH 7.4. The protocol:
The assay was performed to investigate the conversion half-life of prodrug to drug of the prodrugs of the invention. The conversion half-life was investigated in vitro at pH 7.4 upon incubation at 37° C.
Test compounds were dissolved to a concentration of 100 μM in phosphate-buffered saline (140 mM NaCl, 2.07 mM KCl, 8.05 mM Na2HPO4, 1.96 mM KH2PO4, pH 7.4). Solution pH was measured after dissolution and adjusted to pH 7.4 with aqueous NaOH if necessary. The solution was filtered through a 0.22 μm syringe filter, then incubated in a water bath at 37° C. Aliquots were withdrawn at defined timepoints, e.g. every 24-72 hours, for LCMS analysis.
LCMS analysis was performed using the procedure defined in LCMS_A above. The AUC of the prodrug, active drug, and DKP were determined using UV detection at 214 nm, and the ratio of prodrug AUC over total AUC of prodrug plus active drug plus DKP was calculated. The negative natural logarithm of this ratio was plotted over time, and a linear regression of this relationship was then performed.
The prodrug to drug conversion half-life of the compounds of the invention was measured as described in General Methods for Measuring Conversion Half-life.

For the molecule `CC[C@H](C)[C@H](NC(=O)[C@H](Cc1ccccc1)NC(=O)[C@H](CCC(=O)O)NC(=O)[C@H](CCCNC(=N)N)NC(=O)[C@H](C)NC(=O)[C@H](C)NC(=O)[C@H](CCC(N)=O)NC(=O)[C@H](CCC(=O)O)NC(=O)[C@H](CCC(=O)O)NC(=O)[C@H](CC(C)C)NC(=O)[C@H](CC(C)C)NC(=O)[C@@H](NC(=O)[C@H](CO)NC(=O)[C@H](Cc1ccc(O)cc1)NC(=O)[C@H](CC(=O)O)NC(=O)[C@H](CO)NC(=O)[C@@H](NC(=O)[C@H](Cc1ccccc1)NC(=O)[C@@H](NC(=O)CNC(=O)[C@H](CCC(=O)O)NC(=O)C(C)(C)NC(=O)[C@@H](N)Cc1ccc(O)cc1)[C@@H](C)O)[C@@H](C)O)[C@@H](C)CC)C(=O)N[C@@H](CCC(=O)O)C(=O)N[C@@H](Cc1c[nH]c2ccccc12)C(=O)N[C@@H](CC(C)C)C(=O)N[C@@H](CC(C)C)C(=O)N[C@@H](C)C(=O)NCC(=O)NCC(=O)N1CCC[C@H]1C(=O)N[C@@H](CO)C(=O)N[C@@H](CCCCNC(=O)COCCOCCNC(=O)COCCOCCNC(=O)CC[C@H](NC(=O)CCCCCCCCCCCCCCC(=O)O)C(=O)O)C(=O)NCC(=O)N[C@@H](C)C(=O)N1CCC[C@H]1C(=O)N1CCC[C@H]1C(=O)N1CCC[C@H]1C(=O)N[C@@H](CO)C(=O)O` [Parent compound 1] (H-Y[Aib]EGTFTSDYSILLEEQAAREFIEWLLAGGPSK([AEEA-AEEA-γGlu-C16 diacid])GAPPPS-OH), in “in vivo [1]”, the AUC/Dose was 60.7 kg·h/L, the Cmax/Dose was determined as 0.67 kg/L, the Tmax (commonly the time from dosing to the highest level) was 1.5 h and the half-life (usually how long it takes for the measured level to halve) is 104 h. The molecule further showed a half-life in the series “in vivo [2]” of 121 h.

The molecule `CC[C@H](C)[C@H](NC(=O)[C@H](Cc1ccccc1)NC(=O)[C@H](CCC(=O)O)NC(=O)[C@H](CCCNC(=N)N)NC(=O)[C@H](C)NC(=O)[C@H](C)NC(=O)[C@H](CCC(N)=O)NC(=O)[C@H](CCC(=O)O)NC(=O)[C@H](CCC(=O)O)NC(=O)[C@H](CC(C)C)NC(=O)[C@H](CC(C)C)NC(=O)[C@@H](NC(=O)[C@H](CO)NC(=O)[C@H](Cc1ccc(O)cc1)NC(=O)[C@H](CC(=O)O)NC(=O)[C@H](CO)NC(=O)[C@@H](NC(=O)[C@H](Cc1ccccc1)NC(=O)[C@@H](NC(=O)CNC(=O)[C@H](CCC(=O)O)NC(=O)C(C)(C)NC(=O)[C@@H](N)Cc1ccc(O)cc1)[C@@H](C)O)[C@@H](C)O)[C@@H](C)CC)C(=O)N[C@@H](CCC(=O)O)C(=O)N[C@@H](Cc1c[nH]c2ccccc12)C(=O)N[C@@H](CC(C)C)C(=O)N[C@@H](CC(C)C)C(=O)N[C@@H](C)C(=O)NCC(=O)NCC(=O)N1CCC[C@H]1C(=O)N[C@@H](CO)C(=O)N[C@@H](CCCCNC(=O)[C@@H](N)CCCCNC(=O)[C@@H](N)CCCCNC(=O)CC[C@H](NC(=O)CCCCCCCCCCCCCCC(=O)O)C(=O)O)C(=O)NCC(=O)N[C@@H](C)C(=O)N1CCC[C@H]1C(=O)N1CCC[C@H]1C(=O)N1CCC[C@H]1C(=O)N[C@@H](CO)C(=O)O` [Parent compound 2] (H-Y[Aib]EGTFTSDYSILLEEQAAREFIEWLLAGGPSK([εLys-εLys-γGlu-C16 diacid])GAPPPS-OH) gave a half-life in the series “in vivo [2]” of 104 h.

Take `CC[C@H](C)[C@H](NC(=O)[C@H](Cc1ccccc1)NC(=O)[C@H](CCC(=O)O)NC(=O)[C@H](CCCNC(=N)N)NC(=O)[C@H](C)NC(=O)[C@H](C)NC(=O)[C@H](CCC(N)=O)NC(=O)[C@H](CCCCNC(=O)[C@@H](N)CCCCNC(=O)[C@@H](N)CCCCNC(=O)CC[C@H](NC(=O)CCCCCCCCCCCCCCCCC(=O)O)C(=O)O)NC(=O)[C@H](CCC(=O)O)NC(=O)[C@H](CC(C)C)NC(=O)[C@H](CC(C)C)NC(=O)[C@@H](NC(=O)[C@H](CO)NC(=O)[C@H](Cc1ccc(O)cc1)NC(=O)[C@H](CC(=O)O)NC(=O)[C@H](CO)NC(=O)[C@@H](NC(=O)[C@H](Cc1ccccc1)NC(=O)[C@@H](NC(=O)CNC(=O)[C@H](CCC(=O)O)NC(=O)C(C)(C)NC(=O)[C@@H](N)Cc1ccc(O)cc1)[C@@H](C)O)[C@@H](C)O)[C@@H](C)CC)C(=O)N[C@@H](CCC(=O)O)C(=O)N[C@@H](Cc1c[nH]c2ccccc12)C(=O)N[C@@H](CC(C)C)C(=O)N[C@@H](CC(C)C)C(=O)N[C@@H](C)C(=O)NCC(=O)NCC(=O)N1CCC[C@H]1C(=O)N[C@@H](CO)C(=O)N[C@@H](CO)C(=O)NCC(=O)N[C@@H](C)C(=O)N1CCC[C@H]1C(=O)N1CCC[C@H]1C(=O)N1CCC[C@H]1C(=O)N[C@@H](CO)C(=O)O` [Parent compound 4] (H-Y[Aib]EGTFTSDYSILLEK([εLys-εLys-γGlu-C18 diacid])QAAREFIEWLLAGGPSSGAPPPS-OH): in “in vivo [1]”, the AUC/Dose is recorded as 17.9* kg*h/L and the Cmax/Dose was 0.35* kg/L. In “in vivo [2]”, the half-life is 106 h.

With “H-K([Gly-γGlu-C16 diacid])[Sar]Y[Aib]EGTFTSDYSILLEEQAAREFIEWLLAGGPSK([AEEA-AEEA-γGlu-C16 diacid])GAPPPS-OH [Compound 9]”, the half-life at 100 μM in the series “physchem” is 132 h. In “in vivo [2]”, this molecule had a half-life of 102 h.

“H-K([γGlu-C16 diacid])VY[Aib]EGTFTSDYSILLEEQAAREFIEWLLAGGPSK([AEEA-AEEA-γGlu-C16 diacid])GAPPPS-OH [Non-converting compound 1]”: in “in vivo [1]”, the AUC/Dose came out at 20.1 kg·h/L, the Cmax/Dose is 0.21 kg/L, the Tmax stood at 1.5 h and the half-life is 137 h. The molecule further showed a half-life in “in vivo [2]” of 170 h.

For the molecule “H-[dK]([AEEA-AEEA-γGlu-C16 diacid])[Sar]Y[Aib]EGTFTSDYSILLEEQAAREFIEWLLAGGPSK([AEEA-AEEA-γGlu-C16 diacid])GAPPPS-OH [Compound 10]”, the half-life at 100 μM in “physchem” is 195 h. Moreover, the half-life in the series “in vivo [2]” was 118 h.

The values are drawn from US11840560B2, “Prodrugs and uses thereof” (Novo Nordisk A/S, priority 2022, dated 2023).
